According to PubChem BioAssay AID2060626 (Molecular Pharmacology Branch, DTP, NCI, 2025):
“And” between values parts separate entries of the source, which are not always exact repeats. Identical values can stand only once.

System: 168753-222-R-J1-PDC complex spheroid viability
Test: Anticancer human tumor 168753-222-R-J1-PDC patient-derived bladder carcinoma cell line growth inhibition [CLK]
Details: for viability, T/C: stronger effect = lower value; active = viability on the fitted dose curve at most 10% of control; inactive = the rest
How it was run: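 Multi-cell-type spheroids combined patient-derived tumor cells with HUVEC endothelial cells and human mesenchymal stem cells. Paired agents were dosed in half-log steps down from about clinical Cmax, or from 10 microM where Cmax was unknown.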

[1] = curve of first compound, second compound 0.0316 µM
[2] = curve of first compound, second compound 0.1 µM
[3] = curve of first compound, second compound 0.316 µM
[4] = curve of first compound, second compound 1 µM
[5] = curve of first compound, second compound 3.16 µM
[6] = curve of first compound, second compound 10 µM
[7] = second compound 0.0316 µM, first compound 0.0316 µM
[8] = second compound 0.0316 µM, first compound 0.1 µM
[9] = second compound 0.0316 µM, first compound 0.316 µM
[10] = second compound 0.0316 µM, first compound 1 µM
[11] = second compound 0.0316 µM, first compound 3.16 µM
[12] = second compound 0.0316 µM, first compound 10 µM
[13] = second compound 0.1 µM, first compound 0.0316 µM
[14] = second compound 0.1 µM, first compound 0.1 µM
[15] = second compound 0.1 µM, first compound 0.316 µM
[16] = second compound 0.1 µM, first compound 1 µM
[17] = second compound 0.1 µM, first compound 3.16 µM
[18] = second compound 0.1 µM, first compound 10 µM
[19] = second compound 0.316 µM, first compound 0.0316 µM
[20] = second compound 0.316 µM, first compound 0.1 µM
[21] = second compound 0.316 µM, first compound 0.316 µM
[22] = second compound 0.316 µM, first compound 1 µM
[23] = second compound 0.316 µM, first compound 3.16 µM
[24] = second compound 0.316 µM, first compound 10 µM
[25] = second compound 1 µM, first compound 0.0316 µM
[26] = second compound 1 µM, first compound 0.1 µM
[27] = second compound 1 µM, first compound 0.316 µM
[28] = second compound 1 µM, first compound 1 µM
[29] = second compound 1 µM, first compound 3.16 µM
[30] = second compound 1 µM, first compound 10 µM
[31] = second compound 3.16 µM, first compound 0.0316 µM
[32] = second compound 3.16 µM, first compound 0.1 µM
[33] = second compound 3.16 µM, first compound 0.316 µM
[34] = second compound 3.16 µM, first compound 1 µM
[35] = second compound 3.16 µM, first compound 3.16 µM
[36] = second compound 3.16 µM, first compound 10 µM
[37] = second compound 10 µM, first compound 0.0316 µM
[38] = second compound 10 µM, first compound 0.1 µM
[39] = second compound 10 µM, first compound 0.316 µM
[40] = second compound 10 µM, first compound 1 µM
[41] = second compound 10 µM, first compound 3.16 µM
[42] = second compound 10 µM, first compound 10 µM
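Also: viability measured after seven days of drug exposure.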
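For viability, T/C in this document: luminescence signal used as surrogate for viable cell amount; 100% = DMSO vehicle control wells.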

CC1COCCN1c1cc(C2(S(C)(=N)=O)CC2)nc(-c2ccnc3[nH]ccc23)n1 (configuration not stated) + CNC(=O)c1ccc(Nc2nc(OC3CCCC3)c3c(-c4ccc5nc(C)oc5c4)c[nH]c3n2)c(OC)c1
> 10 µM: IC50 [1]
2.96 µM: IC50 [3]
inactive: viability, T/C [7] 111% | viability, T/C [8] 110% | viability, T/C [9] 102% | viability, T/C [10] 103% | viability, T/C [11] 90.8% | viability, T/C [12] 52.4% | viability, T/C [13] 101% | viability, T/C [14] 102% | viability, T/C [15] 104% | viability, T/C [16] 108% | viability, T/C [17] 73.8% | viability, T/C [18] 45.3% | viability, T/C [19] 79.8% | viability, T/C [20] 72.2% | viability, T/C [21] 74.5% | viability, T/C [22] 58.2% | viability, T/C [23] 51.3% | viability, T/C [24] 30.9% | viability, T/C [25] 47.8% | viability, T/C [26] 44.8% | viability, T/C [27] 38.5% | viability, T/C [28] 37.3% | viability, T/C [29] 24.8% | viability, T/C [30] 18.1% | viability, T/C [31] 31.5% | viability, T/C [32] 20.9% | viability, T/C [33] 19.4% | viability, T/C [34] 18.8% | viability, T/C [35] 17.2% | viability, T/C [36] 14.2% | viability, T/C [37] 19.6% | viability, T/C [38] 23% | viability, T/C [39] 20.6% | viability, T/C [40] 16.1% | viability, T/C [41] 15.3% | viability, T/C [42] 9.89%
8.26 µM: IC50 [2]
< 0.0316 µM: IC50 [4] | IC50 [5] | IC50 [6]

CCN1CCN(Cc2ccc(Nc3ncc(F)c(-c4cc(F)c5nc(C)n(C(C)C)c5c4)n3)nc2)CC1 + CNC(=O)c1ccc(Nc2nc(OC3CCCC3)c3c(-c4ccc5nc(C)oc5c4)c[nH]c3n2)c(OC)c1
0.0855 µM: IC50 [3]
> 1 µM: IC50 [1] | IC50 [2]
inactive: viability, T/C (second compound 0.0316 µM, first compound 0.00316 µM) 103% | viability, T/C (second compound 0.0316 µM, first compound 0.01 µM) 104% | viability, T/C [7] 79.3% | viability, T/C [8] 77% | viability, T/C [9] 65.5% | viability, T/C [10] 67.1% | viability, T/C (second compound 0.1 µM, first compound 0.00316 µM) 92.9% | viability, T/C (second compound 0.1 µM, first compound 0.01 µM) 88.5% | viability, T/C [13] 78.8% | viability, T/C [14] 70.1% | viability, T/C [15] 70.4% | viability, T/C [16] 55.7% | viability, T/C (second compound 0.316 µM, first compound 0.00316 µM) 83.6% | viability, T/C (second compound 0.316 µM, first compound 0.01 µM) 77% | viability, T/C [19] 67.2% | viability, T/C [20] 46.3% | viability, T/C [21] 43% | viability, T/C [22] 44.6% | viability, T/C (second compound 1 µM, first compound 0.00316 µM) 25.2% | viability, T/C (second compound 1 µM, first compound 0.01 µM) 46.9% | viability, T/C [25] 25.2% | viability, T/C [26] 22.5% | viability, T/C [27] 19.4% | viability, T/C [28] 26.4% | viability, T/C (second compound 3.16 µM, first compound 0.00316 µM) 26.3% | viability, T/C (second compound 3.16 µM, first compound 0.01 µM) 20.9% | viability, T/C [31] 18.8% | viability, T/C [32] 15.4% | viability, T/C [33] 17% | viability, T/C [34] 17.7% | viability, T/C (second compound 10 µM, first compound 0.00316 µM) 17.4% | viability, T/C (second compound 10 µM, first compound 0.01 µM) 19.6% | viability, T/C [37] 17.4% | viability, T/C [38] 14.6% | viability, T/C [39] 15.1% | viability, T/C [40] 18.2%
< 0.00316 µM: IC50 [4] | IC50 [5] | IC50 [6]

CC(=O)O[C@H]1C(=O)[C@@]2(C)[C@H]([C@H](OC(=O)c3ccccc3)[C@]3(O)C[C@H](OC(=O)[C@H](O)[C@@H](NC(=O)c4ccccc4)c4ccccc4)C(C)=C1C3(C)C)[C@]1(OC(C)=O)CO[C@@H]1C[C@@H]2O
< 0.0316 µM: IC50 (curve of compound)
inactive: viability, T/C (compound 0.0316 µM) 22.5% and 55.4% | viability, T/C (compound 0.1 µM) 10.6% and 32.8% | viability, T/C (compound 0.316 µM) 11.2% and 23.4% | viability, T/C (compound 1 µM) 12.6% and 36.7% | viability, T/C (compound 3.16 µM) 16% and 32.8% | viability, T/C (compound 10 µM) 20.1% and 42.8%

O=c1[nH]cc(F)c(=O)[nH]1 + CN1CCN(c2cc(C(=O)Nc3cc4cc(-c5cnn(C)c5)ccc4cn3)ccn2)CC1
< 0.0316 µM: IC50 [3] | IC50 [4] | IC50 [5] | IC50 [6]
0.16 µM: IC50 [2]
active: viability, T/C [20] 10% | viability, T/C [21] 8.13% | viability, T/C [22] 8.71% | viability, T/C [23] 8.45% | viability, T/C [24] 8.48% | viability, T/C [25] 0.22% | viability, T/C [26] 0.19% | viability, T/C [27] 0.15% | viability, T/C [28] 0.18% | viability, T/C [29] 0.33% | viability, T/C [30] 0.58% | viability, T/C [31] 0.97% | viability, T/C [32] 0.11% | viability, T/C [33] 0.09% | viability, T/C [34] 0.19% | viability, T/C [35] 1.18% | viability, T/C [36] 1.57% | viability, T/C [37] 0.09% | viability, T/C [38] 0.24% | viability, T/C [39] 0.24% | viability, T/C [40] 0.82% | viability, T/C [41] 1.41% | viability, T/C [42] 1.15%
inactive: viability, T/C [7] 100% | viability, T/C [8] 91.9% | viability, T/C [9] 78.8% | viability, T/C [10] 108% | viability, T/C [11] 95.4% | viability, T/C [12] 45.2% | viability, T/C [13] 72% | viability, T/C [14] 62.8% | viability, T/C [15] 15.2% | viability, T/C [16] 45.6% | viability, T/C [17] 36.3% | viability, T/C [18] 29% | viability, T/C [19] 10.5%
8.93 µM: IC50 [1]

C#Cc1c(F)ccc2cc(O)cc(-c3ncc4c(N5CC6CCC(C5)N6)nc(OCC56CCCN5CC(F)C6)nc4c3F)c12 (configuration not stated) + CNC(=O)c1ccc(Nc2nc(OC3CCCC3)c3c(-c4ccc5nc(C)oc5c4)c[nH]c3n2)c(OC)c1
inactive: viability, T/C [7] 106% | viability, T/C [8] 99.4% | viability, T/C [9] 107% | viability, T/C [10] 99.2% | viability, T/C [11] 105% | viability, T/C [12] 73.1% | viability, T/C [13] 99.1% | viability, T/C [14] 103% | viability, T/C [15] 101% | viability, T/C [16] 101% | viability, T/C [17] 90.1% | viability, T/C [18] 73% | viability, T/C [19] 86% | viability, T/C [20] 74.3% | viability, T/C [21] 78.5% | viability, T/C [22] 78.2% | viability, T/C [23] 67.9% | viability, T/C [24] 25.6% | viability, T/C [25] 42.3% | viability, T/C [26] 39.9% | viability, T/C [27] 36.7% | viability, T/C [28] 22.7% | viability, T/C [29] 30.4% | viability, T/C [30] 16.9% | viability, T/C [31] 28.7% | viability, T/C [32] 21.7% | viability, T/C [33] 20% | viability, T/C [34] 17.7% | viability, T/C [35] 18.4% | viability, T/C [36] 16.2% | viability, T/C [37] 17.1% | viability, T/C [38] 21.5% | viability, T/C [39] 18.6% | viability, T/C [40] 14.8% | viability, T/C [41] 11.7% | viability, T/C [42] 11.3%
5.14 µM: IC50 [3]
> 10 µM: IC50 [1] | IC50 [2]
< 0.0316 µM: IC50 [4] | IC50 [5] | IC50 [6]

C=C(F)C(=O)N1CCN(c2nc(OCC3CCCN3C)nc3c2CCN(c2cccc4cccc(Cl)c24)C3)CC1CC#N (configuration not stated)
inactive: viability, T/C (compound 0.0316 µM) 99.3% and 97.7% | viability, T/C (compound 0.1 µM) 93.6% and 102% | viability, T/C (compound 0.316 µM) 91.3% and 87.2% | viability, T/C (compound 1 µM) 95.6% and 87.8% | viability, T/C (compound 3.16 µM) 93.2% and 67.9% | viability, T/C (compound 10 µM) 70.9% and 16.5%
> 10 µM and 4.65 µM: IC50 (curve of compound)
